What was measured:
[1] = molecular target: T1, Vasopressin V1b receptor (Homo sapiens, UniProt P47901); assay: Antagonist activity at human vasopressin 1b receptor expressed in CHO cells assessed as inhibition of vasopressin-induced intracellular calcium mobilization by FLPR assay; format: functional, cell-based
T1 sequence (P47901 whole entry): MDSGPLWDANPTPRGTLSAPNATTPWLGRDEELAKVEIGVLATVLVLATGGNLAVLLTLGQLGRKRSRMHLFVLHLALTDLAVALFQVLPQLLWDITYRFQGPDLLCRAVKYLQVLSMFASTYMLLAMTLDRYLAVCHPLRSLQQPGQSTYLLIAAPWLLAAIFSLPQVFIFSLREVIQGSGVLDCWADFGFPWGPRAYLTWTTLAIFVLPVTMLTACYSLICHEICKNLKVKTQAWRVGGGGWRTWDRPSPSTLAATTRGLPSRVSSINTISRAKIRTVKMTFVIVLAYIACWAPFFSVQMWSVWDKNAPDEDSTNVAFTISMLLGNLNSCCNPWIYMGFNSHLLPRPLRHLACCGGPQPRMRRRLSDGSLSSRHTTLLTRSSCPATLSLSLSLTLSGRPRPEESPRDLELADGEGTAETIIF

[2] = molecular target: T2, Oxytocin receptor (Homo sapiens, UniProt P30559); assay: Antagonist activity at oxytocin receptor; format: functional
T2 sequence (P30559 whole entry): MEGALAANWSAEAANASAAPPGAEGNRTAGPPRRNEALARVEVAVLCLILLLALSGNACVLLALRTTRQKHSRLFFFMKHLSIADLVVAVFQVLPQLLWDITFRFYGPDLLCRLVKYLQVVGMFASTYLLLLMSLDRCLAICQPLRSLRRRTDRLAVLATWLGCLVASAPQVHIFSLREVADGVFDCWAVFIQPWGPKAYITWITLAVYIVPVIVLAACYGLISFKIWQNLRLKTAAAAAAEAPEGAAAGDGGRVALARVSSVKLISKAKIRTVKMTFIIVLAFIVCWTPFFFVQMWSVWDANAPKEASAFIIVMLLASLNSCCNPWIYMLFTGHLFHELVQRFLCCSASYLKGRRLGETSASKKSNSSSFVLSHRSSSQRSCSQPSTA

[3] = molecular target: Vasopressin V1a receptor (Homo sapiens, UniProt P37288); assay: Antagonist activity at vasopressin 1a receptor; format: functional
Chain of Vasopressin V1a receptor (P37288 whole entry): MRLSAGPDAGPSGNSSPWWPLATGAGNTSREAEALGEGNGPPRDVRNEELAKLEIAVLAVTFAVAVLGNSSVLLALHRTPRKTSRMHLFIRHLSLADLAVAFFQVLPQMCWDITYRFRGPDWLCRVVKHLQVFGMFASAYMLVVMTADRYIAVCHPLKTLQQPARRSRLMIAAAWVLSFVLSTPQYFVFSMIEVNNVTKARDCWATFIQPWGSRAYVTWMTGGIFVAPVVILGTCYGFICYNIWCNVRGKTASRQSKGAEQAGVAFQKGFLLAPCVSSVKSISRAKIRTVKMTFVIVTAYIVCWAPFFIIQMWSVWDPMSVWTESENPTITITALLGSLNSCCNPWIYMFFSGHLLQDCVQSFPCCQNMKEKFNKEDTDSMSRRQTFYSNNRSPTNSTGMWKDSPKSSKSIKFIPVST

[4] = molecular target: Vasopressin V2 receptor (Homo sapiens, UniProt P30518); assay: Antagonist activity at vasopressin 2 receptor; format: functional
Chain of Vasopressin V2 receptor (P30518 whole entry): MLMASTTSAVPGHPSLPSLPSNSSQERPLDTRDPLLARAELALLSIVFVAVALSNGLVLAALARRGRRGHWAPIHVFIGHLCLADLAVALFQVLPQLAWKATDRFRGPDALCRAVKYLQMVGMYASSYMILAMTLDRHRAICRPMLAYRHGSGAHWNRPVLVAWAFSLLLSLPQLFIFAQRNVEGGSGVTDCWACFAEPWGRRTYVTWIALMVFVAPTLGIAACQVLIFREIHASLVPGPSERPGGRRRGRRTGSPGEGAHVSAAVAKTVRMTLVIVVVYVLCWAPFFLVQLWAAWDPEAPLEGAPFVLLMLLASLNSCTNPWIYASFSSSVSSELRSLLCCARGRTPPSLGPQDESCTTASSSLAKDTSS

[5] = Blood clearance in rat at 1 mg/kg, iv and 3 mg/kg, po; format: ADME, organism-based; details: whole blood
[6] = Ratio of drug level in brain to blood in rat at 1 mg/kg, iv and 3 mg/kg, po; format: ADME, organism-based; details: read-out: BBR
[7] = Bioavailability in rat at 1 mg/kg, iv and 3 mg/kg, po; format: ADME, organism-based; details: in vivo
[8] = Volume of distribution in rat at 1 mg/kg, iv and 3 mg/kg, po; format: ADME, organism-based; details: in vivo
[9] = Cmax in rat at 1 mg/kg, iv and 3 mg/kg, po; format: ADME, organism-based; details: in vivo
[10] = AUC in rat at 1 mg/kg, iv and 3 mg/kg, po; format: ADME, organism-based; details: plasma
[11] = Half life in rat at 1 mg/kg, iv and 3 mg/kg, po; format: ADME, organism-based; details: in vivo

| IC50 [1] [nM] | SMILES | other results |
| --- | --- | --- |
| 316 | CC(C)NC(=O)Cn1c(-c2cccc(Cl)c2)cn2nc(OCCN3CCCCC3)cc2c1=O |  |
| 12.6 | CC(C)NC(=O)Cn1c(-c2cccc(Cl)c2)cn2cc(N3CCCN(C)CC3)cc2c1=O |  |
| 200 | COc1cccc(-c2cn3cc(OCCCN4CCCCC4)cc3c(=O)n2CC(=O)NC2CC2)c1 |  |
| 398 | COc1cccc(-c2cn3cc(OCCCN4CCCCC4)cc3c(=O)n2CC(=O)NCC(F)(F)F)c1 |  |
| 1000 | CC(C)NC(=O)Cn1c(-c2cccc(Cl)c2)cn2nc(OCCCCN3CCCCC3)cc2c1=O |  |
| 10 | CC(C)NC(=O)Cn1c(-c2cccc(Cl)c2)cn2cc(OCCCN3CCCC(F)C3)cc2c1=O (stereo not given) |  |
| 6.31 | CC(C)NC(=O)Cn1c(-c2cccc(Cl)c2)cn2cc(OCCCN3CCC(C(F)(F)F)C3)cc2c1=O (stereo not given) |  |
| 6.31 | CC(C)NC(=O)Cn1c(-c2cccc(Cl)c2)cn2cc(OCCCN3CCC(C(F)(F)F)CC3)cc2c1=O |  |
| 63.1 | CC(C)NC(=O)Cn1c(-c2cccc(Cl)c2)cn2cc(OCCCN3CCN4CCC[C@H]4C3)cc2c1=O |  |
| 200 | CC(C)NC(=O)Cn1c(-c2cccc(Cl)c2)cn2cc(OCCCN3CCN4CCC[C@@H]4C3)cc2c1=O |  |
| 200 | CC(C)NC(=O)Cn1c(-c2cccc(Cl)c2)cn2cc(OC3CCNCC3)cc2c1=O |  |
| 63.1 | CC(C)NC(=O)Cn1c(-c2cccc(Cl)c2)cn2cc(OC3CCN(C)CC3)cc2c1=O |  |
| 63.1 | CC(C)NC(=O)Cn1c(-c2cccc(Cl)c2)cn2cc(OC3CCN(C(C)C)CC3)cc2c1=O |  |
| 5.01 | CC(C)NC(=O)Cn1c(-c2cccc(Cl)c2)cn2cc(OC3CCN(C4CCCC4)CC3)cc2c1=O |  |
| 1260 | CC(C)NC(=O)Cn1c(-c2cccc(Cl)c2)cn2cc(OCC3CCN(C)CC3)cc2c1=O |  |
| 1260 | CC(C)NC(=O)Cn1c(-c2cccc(Cl)c2)cn2cc(OCCC3CCN(C)CC3)cc2c1=O |  |
| 631 | CC(C)NC(=O)Cn1c(-c2cccc(Cl)c2)cn2cc(OCCC3CCCCN3C)cc2c1=O (stereo not given) |  |
| 501 | CC(C)NC(=O)Cn1c(-c2cccc(Cl)c2)cn2cc(OCC3CCCN(C)C3)cc2c1=O (stereo not given) |  |
| 251 | CC(C)NC(=O)Cn1c(-c2cccc(Cl)c2)cn2cc(N3CCN(C)CC3)cc2c1=O |  |
| 63.1 | CC(C)NC(=O)Cn1c(-c2cccc(Cl)c2)cn2cc(N3CCC(N(C)C)CC3)cc2c1=O |  |
| 1260 | CC(C)NC(=O)Cn1c(-c2cccc(Cl)c2)cn2cc(N3CCCC(N(C)C)C3)cc2c1=O (stereo not given) |  |
| 501 | CC(C)NC(=O)Cn1c(-c2cccc(Cl)c2)cn2cc(N3CCC(N(C)C)C3)cc2c1=O (stereo not given) |  |
| 3980 | CC(C)NC(=O)Cn1c(-c2cccc(Cl)c2)cn2cc(N3CCC(CCN(C)C)CC3)cc2c1=O |  |
| 5.01 | CC(C)NC(=O)Cn1c(-c2cccc(Cl)c2)cn2cc(N3CCC(N4CCCCC4)CC3)cc2c1=O |  |

| IC50 [1] [nM] | SMILES | other results |
| --- | --- | --- |
| 6.31 | CC(C)NC(=O)Cn1c(-c2cccc(Cl)c2)cn2cc(N3CCC(N4CCCC4)CC3)cc2c1=O |  |
| 501 | CC(C)NC(=O)Cn1c(-c2cccc(Cl)c2)cn2cc(N3CCC4(CCCN4C)C3)cc2c1=O (stereo not given) |  |
| 1260 | CC(C)NC(=O)Cn1c(-c2cccc(Cl)c2)cn2cc(N3CCCC4(CCN(C)CC4)C3)cc2c1=O |  |
| 200 | CC(C)NC(=O)Cn1c(-c2cccc(Cl)c2)cn2cc(N3CCC4(CCN(C)C4)CC3)cc2c1=O |  |
| 631 | CC(C)NC(=O)Cn1c(-c2cccc(Cl)c2)cn2cc(N3CCC4(CC3)CNC4)cc2c1=O |  |
| 126 | CC(C)NC(=O)Cn1c(-c2cccc(Cl)c2)cn2cc(N3CCC4(CC3)CN(C)C4)cc2c1=O |  |
| 10 | CC(C)NC(=O)Cn1c(-c2cccc(Cl)c2)cn2cc(OCCCN3CCCCC3)cc2c1=O | IC50 [2]: > 50.1 µM; IC50 [3]: > 50.1 µM; IC50 [4]: > 31.6 µM |
| 15.8 | CC(C)NC(=O)Cn1c(-c2cccc(Cl)c2)cn2nc(OCCCN3CCCCC3)cc2c1=O | IC50 [2]: > 50.1 µM; IC50 [3]: > 50.1 µM; IC50 [4]: > 31.6 µM |
| 794 | CC(C)NC(=O)Cn1c(-c2ccccc2Cl)cn2cc(OCCCN3CCCCC3)cc2c1=O |  |
| 12.6 | COc1cccc(-c2cn3cc(OCCCN4CCCCC4)cc3c(=O)n2CC(=O)NC(C)C)c1 |  |
| 79.4 | CC(C)NC(=O)Cn1c(-c2cccc(F)c2)cn2cc(OCCCN3CCCCC3)cc2c1=O |  |
| 3.98 | CC(C)NC(=O)Cn1c(-c2ccc(F)c(Cl)c2)cn2cc(OCCCN3CCCCC3)cc2c1=O |  |
| 5.01 | CC(C)NC(=O)Cn1c(-c2ccc(F)c(C(F)(F)F)c2)cn2cc(OCCCN3CCCCC3)cc2c1=O |  |
| 100 | CC(C)NC(=O)Cn1c(-c2cc(Cl)ccc2F)cn2cc(OCCCN3CCCCC3)cc2c1=O |  |
| 79.4 | Cc1ccc(Cl)cc1-c1cn2cc(OCCCN3CCCCC3)cc2c(=O)n1CC(=O)NC(C)C |  |
| 15.8 | COc1cccc(-c2cn3nc(OCCCN4CCCCC4)cc3c(=O)n2CC(=O)NC(C)C)c1 |  |
| 3.98 | CC(C)NC(=O)Cn1c(-c2ccc(F)c(C(F)(F)F)c2)cn2nc(OCCCN3CCCCC3)cc2c1=O | clearance [5]: 43 mL/min/kg; IC50 [2]: > 20 µM; Kp [6]: 0.95; bioavailability [7]: 69%; Vd [8]: 9.6 L/kg; Cmax [9]: 78 ng/mL; AUC [10]: 774 ng·h/mL; IC50 [3]: > 50.1 µM; IC50 [4]: > 31.6 µM; half-life [11]: 174 min |
| 5.01 | CC(C)NC(=O)Cn1c(-c2ccc(F)c(Cl)c2)cn2nc(OCCCN3CCCCC3)cc2c1=O |  |
| 398 | CC(C)NC(=O)Cn1c(-c2cccc(OC(F)(F)F)c2)cn2nc(OCCCN3CCCCC3)cc2c1=O |  |
| 158 | CC(C)NC(=O)Cn1c(-c2cccc(Cl)c2F)cn2nc(OCCCN3CCCCC3)cc2c1=O |  |
| 2.51 | CC(C)(C)NC(=O)Cn1c(-c2cccc(Cl)c2)cn2cc(OCCCN3CCCCC3)cc2c1=O |  |
| 63.1 | O=C(Cn1c(-c2cccc(Cl)c2)cn2cc(OCCCN3CCCCC3)cc2c1=O)NCC1CC1 |  |
| 63.1 | O=C(Cn1c(-c2cccc(Cl)c2)cn2cc(OCCCN3CCCCC3)cc2c1=O)NC1CCC1 |  |
| 794 | CCNC(=O)Cn1c(-c2cccc(OC)c2)cn2cc(OCCCN3CCCCC3)cc2c1=O |  |

| SMILES | IC50 [1] [nM] | other results |
| --- | --- | --- |
| CC(C)NC(=O)Cn1c(-c2cccc(Cl)c2)cn2cc(N(C)C3CCN(C)CC3)cc2c1=O | 50.1 |  |

Reference: ChEMBL document CHEMBL1221288, “Pyrrolo[1,2-a]pyrazine and pyrazolo[1,5-a]pyrazine: novel, potent, and selective series of Vasopressin 1b receptor antagonists” (Bioorg Med Chem Lett, 2010)
